Reference: ChEMBL document CHEMBL4190379 (Bioorg Med Chem Lett, 2018)

Experiments:
[1] = Intrinsic unbound clearance in human liver microsomes; format: ADME, microsome
[2] = target: T1, Bromodomain-containing protein 1 (Homo sapiens) (UniProt O95696); assay: Binding affinity to human BRD1 expressed in bacterial system assessed as remaining binding level at 1 uM by BROMOscan assay relative to control
T1 sequence (whole entry): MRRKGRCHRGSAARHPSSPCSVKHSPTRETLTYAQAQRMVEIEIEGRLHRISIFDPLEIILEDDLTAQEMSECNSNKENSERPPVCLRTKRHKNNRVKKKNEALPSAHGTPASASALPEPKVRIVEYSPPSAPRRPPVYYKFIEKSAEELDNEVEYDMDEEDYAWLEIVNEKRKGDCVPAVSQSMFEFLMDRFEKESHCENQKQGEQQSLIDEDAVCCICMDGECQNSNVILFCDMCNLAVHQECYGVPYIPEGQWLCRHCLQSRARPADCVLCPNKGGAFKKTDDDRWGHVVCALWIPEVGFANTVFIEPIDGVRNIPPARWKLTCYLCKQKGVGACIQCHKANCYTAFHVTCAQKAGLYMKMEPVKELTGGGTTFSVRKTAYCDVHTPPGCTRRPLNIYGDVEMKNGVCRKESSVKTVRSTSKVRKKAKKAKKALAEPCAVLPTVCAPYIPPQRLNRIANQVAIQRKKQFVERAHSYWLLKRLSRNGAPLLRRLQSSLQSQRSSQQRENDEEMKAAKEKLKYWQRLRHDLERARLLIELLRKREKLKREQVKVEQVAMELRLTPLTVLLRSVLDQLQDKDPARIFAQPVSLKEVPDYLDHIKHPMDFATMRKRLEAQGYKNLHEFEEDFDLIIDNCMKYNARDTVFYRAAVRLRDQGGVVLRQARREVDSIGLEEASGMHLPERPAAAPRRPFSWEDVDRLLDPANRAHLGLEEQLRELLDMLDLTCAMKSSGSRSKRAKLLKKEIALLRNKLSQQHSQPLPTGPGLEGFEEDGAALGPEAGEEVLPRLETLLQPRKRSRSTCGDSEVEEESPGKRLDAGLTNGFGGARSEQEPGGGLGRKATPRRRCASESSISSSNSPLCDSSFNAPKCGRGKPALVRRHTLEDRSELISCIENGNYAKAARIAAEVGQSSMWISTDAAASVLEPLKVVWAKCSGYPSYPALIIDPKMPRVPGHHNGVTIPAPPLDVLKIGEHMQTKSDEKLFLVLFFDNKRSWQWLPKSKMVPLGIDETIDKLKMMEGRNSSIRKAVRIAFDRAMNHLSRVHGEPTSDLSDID

[3] = target: T2, Bromodomain and PHD finger-containing protein 3 (Homo sapiens) (UniProt Q9ULD4); assay: Binding affinity to human BRPF3 expressed in bacterial system assessed as remaining binding level at 1 uM by BROMOscan assay relative to control
T2 sequence (whole entry): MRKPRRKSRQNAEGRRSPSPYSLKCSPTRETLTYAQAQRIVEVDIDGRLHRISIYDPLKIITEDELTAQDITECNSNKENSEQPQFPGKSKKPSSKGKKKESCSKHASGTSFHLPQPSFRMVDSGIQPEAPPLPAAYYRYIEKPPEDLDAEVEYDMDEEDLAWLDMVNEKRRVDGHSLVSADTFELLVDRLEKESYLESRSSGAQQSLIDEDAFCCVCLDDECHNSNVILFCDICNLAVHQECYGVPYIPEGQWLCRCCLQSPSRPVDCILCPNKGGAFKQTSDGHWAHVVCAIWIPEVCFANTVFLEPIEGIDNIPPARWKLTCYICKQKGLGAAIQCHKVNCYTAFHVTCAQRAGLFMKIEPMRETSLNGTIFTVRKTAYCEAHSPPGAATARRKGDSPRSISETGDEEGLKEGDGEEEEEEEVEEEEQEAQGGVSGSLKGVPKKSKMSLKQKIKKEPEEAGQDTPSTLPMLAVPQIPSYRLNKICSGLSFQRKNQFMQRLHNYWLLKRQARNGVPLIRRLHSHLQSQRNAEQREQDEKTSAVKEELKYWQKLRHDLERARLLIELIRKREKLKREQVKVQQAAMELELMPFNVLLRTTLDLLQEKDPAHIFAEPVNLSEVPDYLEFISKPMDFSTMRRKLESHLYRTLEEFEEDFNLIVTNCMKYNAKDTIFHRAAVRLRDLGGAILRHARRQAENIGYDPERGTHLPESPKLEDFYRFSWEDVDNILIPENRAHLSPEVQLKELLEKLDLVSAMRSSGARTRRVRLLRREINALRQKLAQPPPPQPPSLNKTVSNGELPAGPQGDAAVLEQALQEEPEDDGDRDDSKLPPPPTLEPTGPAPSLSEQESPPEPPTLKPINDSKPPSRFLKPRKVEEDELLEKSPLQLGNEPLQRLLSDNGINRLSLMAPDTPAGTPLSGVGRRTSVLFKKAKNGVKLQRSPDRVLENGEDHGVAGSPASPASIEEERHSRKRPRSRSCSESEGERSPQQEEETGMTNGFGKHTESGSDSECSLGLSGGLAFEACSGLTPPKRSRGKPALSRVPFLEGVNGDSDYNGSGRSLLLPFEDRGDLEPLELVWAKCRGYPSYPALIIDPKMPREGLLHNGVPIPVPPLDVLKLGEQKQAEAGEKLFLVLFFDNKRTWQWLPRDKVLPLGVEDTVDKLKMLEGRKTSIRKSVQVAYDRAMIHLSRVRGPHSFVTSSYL

[4] = target: Bromodomain-containing protein 4 (Homo sapiens, UniProt O60885); assay: Binding affinity to His-tagged BRD4 bromodomain 1 to 2 (K57 to K550 amino acids) (unknown origin) using Alexa647-labeled BET-inhibitor as fluorescent probe by bromodomain TR-FRET binding assay; format: single protein
[5] = target: T3, Bromodomain-containing protein 9 (Homo sapiens) (UniProt Q9H8M2); assay: Binding affinity to human BRD9 expressed in bacterial system assessed as remaining binding level at 1 uM by BROMOscan assay relative to control
T3 sequence (whole entry): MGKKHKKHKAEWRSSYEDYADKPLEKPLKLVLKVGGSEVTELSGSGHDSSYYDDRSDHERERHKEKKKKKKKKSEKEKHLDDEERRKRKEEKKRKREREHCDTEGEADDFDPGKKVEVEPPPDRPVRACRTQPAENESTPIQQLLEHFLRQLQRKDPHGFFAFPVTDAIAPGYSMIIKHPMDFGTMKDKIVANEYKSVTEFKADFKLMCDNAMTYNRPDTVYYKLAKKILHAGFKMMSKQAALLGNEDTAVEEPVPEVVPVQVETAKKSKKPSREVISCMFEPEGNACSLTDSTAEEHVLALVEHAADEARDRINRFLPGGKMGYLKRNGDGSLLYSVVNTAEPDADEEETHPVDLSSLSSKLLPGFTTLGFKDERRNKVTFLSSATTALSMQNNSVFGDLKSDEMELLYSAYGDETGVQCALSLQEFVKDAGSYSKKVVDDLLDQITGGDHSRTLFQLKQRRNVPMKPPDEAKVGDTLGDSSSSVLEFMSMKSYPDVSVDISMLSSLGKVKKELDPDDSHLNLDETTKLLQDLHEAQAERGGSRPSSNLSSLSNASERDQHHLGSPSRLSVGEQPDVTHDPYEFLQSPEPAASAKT

Cn1cc2c3c(c[nH]c(=O)c31)-c1cc(CS(C)(=O)=O)ccc1N(c1ccc(F)cc1)C2
CL free [1]: 5.5 L/h/kg | Activity [2]: 98% | Activity [3]: 100% | Ki [4]: 3.3 nM | Activity [5]: 96%

Cn1cc2c3c(c[nH]c3c1=O)CN(c1ccc(F)cc1F)c1ccc(CS(C)(=O)=O)cc1-2
CL free [1]: < 3.1 L/h/kg | Activity [2]: 87% | Activity [3]: 88% | Ki [4]: 0.87 nM | Activity [5]: 56%

Cn1cc2c3c(c[nH]c3c1=O)CN(c1ccccn1)c1ccc(CS(C)(=O)=O)cc1-2
CL free [1]: 3 L/h/kg | Activity [2]: 84% | Activity [3]: 94% | Ki [4]: 0.62 nM | Activity [5]: 38%
